This passage reports MIC results from paper PMC3375340 (Journal of Medicinal Chemistry, 2012).

Molecules are shown by their SMILES. Converted amounts (≈) assume the structure as drawn.

In assay [1] the test system is M. tuberculosis H37Rv INHr. Put plainly: microbe, parasite or virus in culture. Type of assay: cell-based. The conditions noted are these: Mycobacterium tuberculosis.
Assay [2] deals with M. tuberculosis H37Rv RFPr. Put plainly: microbe, parasite or virus in culture. It counts as cell-based. The conditions noted are these: Mycobacterium tuberculosis.

Consider `CCCCCC[C@H](CN1CCC(COc2cccc(C(=NOC)c3ccc(Cl)cc3)c2)CC1)OC(N)=O` [(R)-13, (R)-1-(4-((3-((4-Chlorophenyl)(methoxyimino)methyl)phenoxy)methyl)piperidin-1-yl)octan-2-yl carbamate], for which the MIC amounted to 1.52 µg/mL (≈ 2.87 µM) in assay [1] and 1.51 µg/mL (≈ 2.85 µM) in assay [2].
